According to US6166051A, “Thiol derivatives with metallopeptidase (ACE/NEP) inhibitory activity” (Zambon Group S.p.A., priority 1995, dated 2000):

Assays:
[1] = molecular target: T1, NEP (neutral endopeptidase enzyme) (Rattus norvegicus, UniProt P07861); assay: NEP-inhibitory activity in rat kidney cortex membranes ([3H][Leu5]-enkephaline degradation); format: biochemical; details: in vitro, [3H][Leu5]-enkephaline 15 nM, 20 minutes at 30° C., pH 7.4
T1 construct: from tissue; host or cells: kidney cortex membranes of male Sprague-Dawley rats
T1 sequence (P07861 1-750): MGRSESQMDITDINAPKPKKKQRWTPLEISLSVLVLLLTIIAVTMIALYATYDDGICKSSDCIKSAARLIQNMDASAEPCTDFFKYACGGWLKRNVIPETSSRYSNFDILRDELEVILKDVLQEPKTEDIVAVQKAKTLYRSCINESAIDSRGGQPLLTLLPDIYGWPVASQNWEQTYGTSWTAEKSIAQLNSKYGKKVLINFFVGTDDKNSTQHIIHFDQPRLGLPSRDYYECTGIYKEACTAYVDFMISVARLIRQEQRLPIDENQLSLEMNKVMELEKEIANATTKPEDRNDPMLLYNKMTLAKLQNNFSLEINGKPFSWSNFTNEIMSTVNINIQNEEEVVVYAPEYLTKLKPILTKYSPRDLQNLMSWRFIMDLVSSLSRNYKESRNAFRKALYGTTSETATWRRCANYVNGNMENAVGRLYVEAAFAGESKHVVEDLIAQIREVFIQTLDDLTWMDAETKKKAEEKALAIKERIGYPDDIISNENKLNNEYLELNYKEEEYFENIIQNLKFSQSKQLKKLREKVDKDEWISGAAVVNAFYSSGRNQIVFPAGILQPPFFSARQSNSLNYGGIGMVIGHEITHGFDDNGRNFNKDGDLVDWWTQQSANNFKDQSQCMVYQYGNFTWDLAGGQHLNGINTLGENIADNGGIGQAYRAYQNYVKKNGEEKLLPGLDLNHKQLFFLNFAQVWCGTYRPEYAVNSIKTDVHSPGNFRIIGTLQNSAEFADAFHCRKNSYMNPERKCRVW
Method: a) NEP-inhibitory Activity
The NEP-inhibitory activity was evaluated in rat kidney cortex membranes prepared according to the procedure described by T. Maeda et al. in Biochim Biophys. Acta 1983, 731(1), 115-120.
Kidneys were removed from male Sprague-Dawley rats weighing approximately 300 g and kept at 4° C.
Kidney cortex was carefully removed, finely minced and suspended into a homogenization buffer (10 mM sodium phosphate pH 7.4 containing 1 mM MgCl2, 30 mM NaCl, 0.02% NaN3) 1:15 weight/volume.
The tissue was then cold homogenized for 30 seconds using an Ultra-Turrax homogenizer.
Approximately 10 ml of homogenate were layered over 10 ml of sucrose (41% weight/volume) and centrifuged at 31200 rpm for 30 minutes at 4° C. in a fixed angle rotor.
The membranes were collected from the buffer/sucrose interface, washed twice with 50 mM TRIS/HCl buffer (pH 7.4) and resuspended into the same buffer for the storage of aliquots at -80° C. until use.
The NEP-inhibitory activity was evaluated according to the method described by C. Llorens et aL, in Eur. J. Pharmacol., 69, (1981), 113-116, as reported hereinafter.
Aliquots of the membrane suspension prepared as above described (concentration 5 μg/ml of proteins) were preincubated in the presence of an aminopeptidase inhibitor (Bestatin--1 mM) for 10 minutes at 30° C. [^3 H][Leu^5 ]-enkephaline (15 nM) and buffer TRIS/HCl pH 7.4 (50 mM) were added in order to obtain a final volume of 100 μl.
The enzymatic reaction was stopped by adding HCl 0.1M (100 μl) after 20 minutes of incubation at 30° C.
The formation of the metabolite [^3 H]Tyr-Gly-Gly was quantified, after separation of the unreacted substrate by chromatography on polystyrene columns (Porapak Q), by measuring the relative radioactivity through liquid scintillation.
The percentage of inhibition of the metabolite formation in the membrane preparations treated with the compounds of formula I and with the comparative compounds with respect to the untreated membrane preparations was expressed as IC50 (nM) value.

[2] = molecular target: T2, ACE (angiotensin converting enzyme) (Oryctolagus cuniculus, UniProt P12822); assay: ACE-inhibitory activity (FAPGG substrate, absorbance at 340 nm); format: biochemical; details: in vitro, ACE purified from rabbit lung, 37° C.
T2 construct: purchased SIGMA; host or cells: rabbit lung
T2 sequence (P12822 34-1310): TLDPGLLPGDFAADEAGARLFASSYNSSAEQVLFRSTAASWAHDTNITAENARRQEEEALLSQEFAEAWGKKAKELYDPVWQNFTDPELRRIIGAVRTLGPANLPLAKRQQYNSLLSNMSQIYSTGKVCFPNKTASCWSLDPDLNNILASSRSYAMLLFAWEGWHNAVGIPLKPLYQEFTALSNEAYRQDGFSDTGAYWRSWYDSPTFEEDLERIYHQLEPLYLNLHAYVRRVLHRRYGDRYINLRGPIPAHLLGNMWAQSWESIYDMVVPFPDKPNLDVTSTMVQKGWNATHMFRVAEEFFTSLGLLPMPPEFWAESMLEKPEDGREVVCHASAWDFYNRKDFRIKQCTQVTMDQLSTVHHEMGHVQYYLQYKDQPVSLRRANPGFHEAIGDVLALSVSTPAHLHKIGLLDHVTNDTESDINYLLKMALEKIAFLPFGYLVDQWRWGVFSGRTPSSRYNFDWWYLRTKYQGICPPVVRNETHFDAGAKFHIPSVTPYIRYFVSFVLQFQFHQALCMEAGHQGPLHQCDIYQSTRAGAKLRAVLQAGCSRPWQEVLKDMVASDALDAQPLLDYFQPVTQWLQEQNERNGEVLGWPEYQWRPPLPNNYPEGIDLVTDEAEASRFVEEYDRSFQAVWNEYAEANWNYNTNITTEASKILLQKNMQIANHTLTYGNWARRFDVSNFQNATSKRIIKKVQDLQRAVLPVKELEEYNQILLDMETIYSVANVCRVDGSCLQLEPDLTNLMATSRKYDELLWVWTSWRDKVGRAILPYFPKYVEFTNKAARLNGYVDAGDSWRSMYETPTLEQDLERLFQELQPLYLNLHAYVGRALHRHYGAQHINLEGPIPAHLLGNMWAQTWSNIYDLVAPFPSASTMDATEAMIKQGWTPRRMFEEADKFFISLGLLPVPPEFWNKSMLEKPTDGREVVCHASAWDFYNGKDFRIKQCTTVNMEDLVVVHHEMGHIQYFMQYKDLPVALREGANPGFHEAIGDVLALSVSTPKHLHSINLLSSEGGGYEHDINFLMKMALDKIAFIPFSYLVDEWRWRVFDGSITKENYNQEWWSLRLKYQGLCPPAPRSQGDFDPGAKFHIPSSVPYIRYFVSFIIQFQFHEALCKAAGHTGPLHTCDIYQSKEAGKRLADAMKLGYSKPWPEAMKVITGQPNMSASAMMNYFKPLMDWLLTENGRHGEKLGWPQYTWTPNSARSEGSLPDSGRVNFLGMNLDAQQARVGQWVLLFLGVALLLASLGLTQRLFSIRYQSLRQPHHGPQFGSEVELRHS
Method: b) ACE-inhibitory Activity
50 μM of ACE (250 μmU/ml purified by lung rabbit, EC 3.4.15.1 SIGMA) were preincubated with 50 μl of the compound of formula I or of the comparison compound or related vehicle in thermostated cuvettes at 37° C.
The reaction was started by adding 500 μl of furylacryloylphenylalanylglycylglycine 0.8 mM (FAPGG-SIGMA).
Contemporaneously, by using a Beckman DU-50 spectrophotometer provided with a program for calculating delta A/minutes and regression coefficients of the enzyme kinetics curyes, the absorbance at 340 nm was recorded in continuo for 5 minutes.
The percentage of inhibition in the preparations incubated with the compounds of formula I or with the comparative compounds with respect to the preparations incubated with the vehicle was expressed as IC50 (nM) value.

NEP-inhibitory activity IC50 (nM) [1] | IC50 [1] | IC50 [2] | SMILES
not active |  |  | C[C@H](CS)C(=O)N1CCC[C@H]1C(=O)O [Captopril, reference compound]
 | 7.1 nM | 23 nM | O=C(N[C@@H](Cc1ccccn1)C(=O)O)C(CS)Cc1ccccc1 (stereo partly drawn) [compound 6, N-(^2-phenylmethyl-3-mercaptopropionyl)-(2-pyridyl)-L-alanine]
 | 5.5 nM | 6.5 nM | O=C(N[C@@H](Cc1cccs1)C(=O)O)C(CS)Cc1ccccc1 (stereo partly drawn) [compound 5, N-(2-phenylmethyl-3-mercaptopropionyl)-(2-thienyl)-L-alanine]
 | 4.7 nM | 12 nM | O=C(N[C@@H](Cc1cscn1)C(=O)O)C(CS)Cc1ccccc1 (stereo partly drawn) [compound 4, N-(2-phenylmethyl-3-mercaptopropionyl)-(4-thiazolyl)-L-alanine]
